Reference: patent US10391070B2, “Compositions and methods for treating neurological diseases or injury” (MUSC FOUNDATION FOR RESEARCH DEVELOPMENT, priority 2012, dated 2019)

What was measured:
zebrafish larvae = experiment: Zebrafish larval toxicity (NOEC, lethal dose); assay type: in vivo; details: 7 dpf zebrafish larvae
Method: Using a 96-well plate, one zebrafish larva (7 dpf) was placed in each well in 100 μL of tank water (TW). 100 μL of each compound (0.5-15 μM) was then added to each well for 12 animals (one row) to give a final volume of 200 […]. A control row was tested for DMSO toxicity effects. […] Each drug was assessed for the no observed effect concentration (NOEC), the highest non-lethal dose resulting in no apparent toxic effects.
Zebrafish (AB strain) were obtained from the Zebrafish International Resource Center (supported by P40 RR012546 from NIH-NCRR). Zebrafish were maintained and crossed according to standard methods (Westerfield, 2000). Fertilized eggs were collected and placed in E3 embryo medium and positioned in an incubator set at 28.5° C. with a 14/10 h light/dark cycle (Kimmel et al., 1995). To determine the lethal dose of each compound, 96-well plates containing one zebrafish (7 days post-fertilization, dpf) per well in 100 μL of tank water were used. 100 μL of each compound (0.5 to 15 μM) was added to each well for 12 animals (one row) for a final volume of 200 μL. One row of larvae was used as DMSO only controls. […] All zebrafish studies were approved by the Medical University of South Carolina Institutional Animal Care and Use Committee (AR #2850) and performed in accordance with the guidelines.
Using a 96-well plate, one zebrafish larva (7 dpf) was placed in each well in 100 μL of tank water. 100 μL of each compound was then added to each well for 12 animals (one row) for a final volume of 200 μL. One row of zebrafish larvae was used as DMSO only controls. […] Toxicity was also measured in the mouse model by the NIH Anticonvulsant Screening Program at the National Institute of Neurological Disorders and Stroke (Stables and Kupferberg, 1997), according to the established NIH experimental procedures. Compounds were delivered into mice by intraperitoneal (i.p.) injection at a dose of 100 mg/kg in sterile 5% DMSO, 95% Neobee (Josey et al., 2013). Acute toxicity was assessed by monitoring the animals for impaired neuromuscular function by placing treated mice on a rod rotating at 6 rpm. […]

PTZ-induced seizures = experiment: PTZ-induced seizure (swim activity) model in zebrafish larvae; assay type: in vivo, zebrafish (Danio rerio)
Method: The DanioVision locomotion tracking instrument with Ethovision XT software (Noldus) was used to measure the severity of the seizures by quantifying the locomotor activity of each fish.
In a 48-well plate, one 6-7 dpf larva was added per well. Compounds were given at a sub-lethal dose and treated for 1 h. Three control rows were included—tank water (TW) only, PTZ only and PTZ+VPA (2-4 mM final concentration of VPA). […] After 5 min, the plate was transferred to the Daniovision apparatus and the chamber light was turned on. After 2 min, Ethovision was used to determine the distance traveled (a marker of seizure of activity) by each fish for 15 min (25 frames per second). Velocity, duration of movement, and frequency of movement were also determined from the same recording. After measurement, fish were monitored visually for survival. The distance moved over the recording period with Ethovision XT software (Noldus) was averaged over 8 wells per treatment unless the fish was not detected.
In a 48-well plate, one 7 dpf zebrafish was added per well. Larvae were dosed with each compound at a sub-lethal dose 1 h prior to PTZ treatment. Three control rows were included with each experiment—tank water only control, PTZ only and PTZ+VPA (4 mM final concentration of VPA). […] After 5 min, the plate was transferred to the Daniovision instrument (Noldus Information Technology) and the chamber light was turned on. After 2 min, MediaRecorder (Noldus) was used to record video for 15 min. A small number of videos were acquired 25 frames per second, but the majority of the data was acquired at the frame rate of 60 frames per second. After recording, fish were monitored visually for survival. Ethovision XT software (Noldus) was used to track the fish movement from the video images in order to calculate the total distance traveled over 15 min. […] All experimental comparisons were made between animals from the same clutch.

c-fos = c-fos gene expression in PTZ-treated zebrafish larvae; assay type: in vivo, zebrafish (Danio rerio); details: 7 dpf zebrafish, pre-treatment
Method: Ten 7 dpf larvae were placed in 500 μL tank water in wells of a 48-well cell-culture plate and appropriate concentrations of drugs were added as in the behavior study (Table 9). After a 1 h pre-incubation period, PTZ was added to a final concentration of 15 mM in appropriate wells and larvae were incubated for a further 45 min. Fish were quickly euthanized by incubating the plate in an ice-water bath for 15 min. Fish were removed from each well and all liquid removed before freezing at −80° C. RNA was extracted using Trizol (Invitrogen) followed by the RNeasy Mini kit (Qiagen). Frozen embryos were homogenized in 800 μL Trizol using in-tube pestles and a motorized homogenizer. Following a 5-min incubation at room temperature, 200 μL chloroform was added and the samples were centrifuged at 12,000 g for 10 min. The aqueous phase was transferred to a new tube and 250 μL 100% ethanol was added and the samples mixed. This mixture was then transferred to the Qiagen minicolumn assembly and the protocol followed as described with the kit. Samples were eluted in 30 μL RNase free water and concentration was determined using the Nanodrop instrument (Thermo Fisher). cDNA was prepared using the RETROscript kit (Ambion) with 500 ng total RNA. cDNA was then diluted 1:1 with sterile dH2O and 2.5 μL of this cDNA was used in the QPCR reaction with SsoAdvanced SYBR Green Supermix (BioRad) and c-fos primers designed to span an intron-exon junction (c-fos F: […], SEQ ID NO:9; c-fos R: […], SEQ ID NO:10) ([…] each) in the BioRad CFX96 RealTime instrument. L13a and EF1a gene expression were used for normalization (Rahn et al., 2013). The following cycle conditions were used: 95° C./3 min, 40 cycles of 95° C./15 s, 62° C./30 s, followed by 95° C. 30 s and a dissociation curve. Samples were run in duplicate. The 2^−ΔΔCt method was used to quantify gene expression, whereby all gene Ct values were first normalized to Ct values of the geometric mean of the Ct of L13a and EF1a (Livak and Schmittgen, 2001). Treated samples were then normalized to the tank water control and converted to fold change.

HT-22 neuronal cells = experiment: Respirometry (OCR, ECAR; Seahorse XF-96); assay type: cell-based, mouse; set-up: ECAR (glycolysis), difference from control: unit not given here; details: HT-22 cells, mean±SEM
Method: Oxygen consumption rates (OCR) and extracellular acidification rates (ECAR) of HT-22 neuronal cells were performed on the XF-96 Extracellular Flux Analyzer (Seahorse Bioscience) using standard methods (Beeson et al., 2010). In brief, cells were cultured in 96 well Seahorse plates in DMEM high glucose media (Invitrogen) supplemented with 10% FBS, 10 mM HEPES, and 1% antibiotic-antimycotic (Invitrogen). The media was replaced with DMEM media supplemented with 25 mM glucose, 10 mM sodium pyruvate, 31 mM NaCl, and 2 mM glutamine at pH 7.4. Each of the four drug ports on the Seahorse sensor cartridge were filled with test compound (media only, 5 μM NQN-1, 10 μM VK3 or 12.5 μM MB), 10 μM oligomycin, 1 μM FCCP, and 5 μM rotenone, which were injected into each well at 20, 80, 110, and 135 min, respectively. The pmol/min OCR rate for each well (9-52 wells/group) was measured. Wells were excluded from the analysis if their OCR values surpassed the Tukey Outlier Rule. In order to standardize the OCR rates across wells, the average OCR value at 17 min (last time point prior to injection of the test compounds) for each experimental group was calculated, and set to 100. All OCR values are given as a percentage of this pre-treatment value. […]

HDAC = HDAC isozymes inhibited; cited from earlier work

With `O=C(NC1=CC(=O)c2ccccc2C1=O)c1ccccc1` [2-benzoylamino-1,4-naphthoquinone] the Lethal dose (zebrafish larvae; up to 5 h treatment) was 0.005 mM, the “Highest concentration tested for anti-seizure activity” value (zebrafish larvae; highest sub-lethal dose) was 0.003 mM and the “concentration required for effective reduction of seizures” value (PTZ-induced seizures; PTZ-treated zebrafish larvae) was 3 µM. For the same molecule, the Seizure suppression (PTZ-induced seizures; PTZ-treated zebrafish larvae, pretreated 1 hr at NOEC) was “Yes”, the “PTZ-induced swim activity (distance traveled)” value (PTZ-induced seizures; zebrafish larvae, 1 h pretreatment at sub-lethal concentration (VPA 4 mM, NQN-1 3 μM), 15 mM PTZ) was “significantly suppressed PTZ-induced swim activity” and the “PTZ-induced increase in c-fos expression” value (c-fos) was “able to blunt this increase in expression”. For the same molecule, the “basal cellular respiration, difference in OCR from control” value (HT-22 neuronal cells; 1 h treatment, OCR as percentage of pre-treatment value) was 24.35±1.03, the “basal mitochondrial respiration, difference from control” value (HT-22 neuronal cells; basal minus non-mitochondrial (rotenone)) was 15.26±2.29 and the “ATP-linked respiration, difference from control” value (HT-22 neuronal cells; basal minus oligomycin) was 16.83±1.83. For the same molecule, the “ECAR (glycolysis), difference from control” value (HT-22 neuronal cells) was 1.75±1.12 and the “HDAC Class of Inhibition” value (HDAC) was 6.
